Assay results as given in US20230286975A1, “IMPROVED METHOD FOR THE PRODUCTION OF LYSERGIC ACID DIETHYLAMIDE (LSD) AND NOVEL DERIVATIVES THEREOF” (COMPASS […], priority 2020, published 2023).

What was measured:
[1] = tested on: human dopamine D4.7 receptor; test: D4.7 receptor radioligand binding inhibition ([3H]Spiperone); conditions: for % inhibition, D4.7: screened at 10 μM, mean of two replicates; for interaction at D4.7 receptor, in words: 10 μM, % inhibition greater than 50% interpreted as potentially significant interaction
Description: (§1) Four novel LSD derivatives according to the present invention (referred to as “Compound 1”, “Compound 2”, “Compound 3”, and “Compound 4”; structures depicted below) were screened at 10 μM at key receptors of interest in order to determine % binding inhibition. Targets were selected due to prior evidence that LSD binds these targets with moderate or high affinities in vitro, as well as their functional significance in the context of human health.
CHO-K1 cells stably transfected with a plasmid encoding the human dopamine D4.7 receptor were used to prepare membranes in modified Tris-HCl buffer pH 7.4. A 60 μg aliquot of membrane was incubated with 1.5 nM [^3H]Spiperone for 120 minutes at 25° C. Non-specific binding was estimated in the presence of 10 μM haloperidol. Membranes were filtered and washed, the filters were then counted to determine [^3H]Spiperone specifically bound. Test compounds were screened at 10 μM.
(§2) Experimental results were expressed as a percent of control specific binding, via the equation: […]
(§3) For each target, data from two experimental replicates were averaged to generate a mean % inhibition.

[2] = molecular target: T1, Human recombinant serotonin 5-HT2A receptors (Homo sapiens, UniProt P28223); test: 5-HT2A receptor radioligand binding inhibition ([3H]Ketanserin); conditions: for selectivity as ligand of the 5-HT2A receptor, in words: conclusion from % inhibition at 10 μM over ten receptors; for inhibition at 10 µM: screened at 10 μM, mean of two replicates; for interaction at 5-HT2A receptor, in words: 10 μM, % inhibition greater than 50% interpreted as potentially significant interaction
T1 construct: expressed in transfected cells; host or cells: CHO-K1
T1 sequence (P28223 whole entry): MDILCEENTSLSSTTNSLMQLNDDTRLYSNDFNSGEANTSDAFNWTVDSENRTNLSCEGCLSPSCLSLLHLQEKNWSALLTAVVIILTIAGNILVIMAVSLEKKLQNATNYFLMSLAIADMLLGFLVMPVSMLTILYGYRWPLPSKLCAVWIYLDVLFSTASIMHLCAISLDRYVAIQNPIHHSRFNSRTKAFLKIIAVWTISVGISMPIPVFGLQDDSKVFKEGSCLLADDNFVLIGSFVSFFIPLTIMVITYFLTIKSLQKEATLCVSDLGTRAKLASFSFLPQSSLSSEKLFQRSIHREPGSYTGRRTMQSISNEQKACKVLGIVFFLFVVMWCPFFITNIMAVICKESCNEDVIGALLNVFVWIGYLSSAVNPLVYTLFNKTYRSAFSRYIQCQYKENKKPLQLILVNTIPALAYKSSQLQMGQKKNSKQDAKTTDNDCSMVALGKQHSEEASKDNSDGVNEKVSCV
Description: as §1
Human recombinant serotonin 5-HT2A receptors expressed in CHO-K1 cells were used in modified Tris-HCl buffer pH 7.4. A 30 μg aliquot of membrane protein was incubated with 0.5 nM [^3H]Ketanserin for 60 minutes at 25° C. Non-specific binding was estimated in the presence of 1 μM Mianserin. Receptors were filtered and washed, the filters were then counted to determine [^3H]Ketanserin specifically bound. Test compounds were screened at 10 μM.
as §2, §3

[3] = molecular target: T2, Human recombinant dopamine D1 receptors (Homo sapiens, UniProt P21728); test: D1 receptor radioligand binding inhibition ([3H]SCH-23390); conditions: for inhibition at 10 µM: screened at 10 μM, mean of two replicates
T2 construct: expressed in transfected cells; host or cells: CHO
T2 sequence (P21728 whole entry): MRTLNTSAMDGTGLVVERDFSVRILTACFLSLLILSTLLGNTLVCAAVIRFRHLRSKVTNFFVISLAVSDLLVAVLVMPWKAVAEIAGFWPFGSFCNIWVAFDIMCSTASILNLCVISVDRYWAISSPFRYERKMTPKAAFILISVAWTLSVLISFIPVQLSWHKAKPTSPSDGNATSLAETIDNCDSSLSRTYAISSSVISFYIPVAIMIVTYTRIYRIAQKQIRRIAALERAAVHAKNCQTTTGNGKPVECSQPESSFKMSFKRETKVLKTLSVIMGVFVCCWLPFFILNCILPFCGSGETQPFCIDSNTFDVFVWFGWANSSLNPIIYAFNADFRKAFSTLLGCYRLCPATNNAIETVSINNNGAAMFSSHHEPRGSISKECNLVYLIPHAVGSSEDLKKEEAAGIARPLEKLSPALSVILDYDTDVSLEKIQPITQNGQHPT
Description: as §1
Human recombinant dopamine D1 receptors expressed in CHO cells were used in modified Tris-HCl buffer pH 7.4. A 20 μg aliquot was incubated with 1.4 nM [^3H]SCH-23390 for 120 minutes at 37° C. Non-specific binding was estimated in the presence of 10 μM (+)-butaclamol. Receptors were filtered and washed, the filters were then counted to determine [^3H]SCH-23390 specifically bound. Test compounds were screened at 10 μM.
as §2, §3

[4] = molecular target: T3, Human recombinant dopamine D2S receptors (Homo sapiens, UniProt P14416); test: D2S receptor radioligand binding inhibition ([3H]Spiperone); conditions: for inhibition at 10 µM: screened at 10 μM, mean of two replicates
T3 construct: expressed in transfected cells; host or cells: CHO
T3 sequence (P14416 1-414 isoform P14416-2): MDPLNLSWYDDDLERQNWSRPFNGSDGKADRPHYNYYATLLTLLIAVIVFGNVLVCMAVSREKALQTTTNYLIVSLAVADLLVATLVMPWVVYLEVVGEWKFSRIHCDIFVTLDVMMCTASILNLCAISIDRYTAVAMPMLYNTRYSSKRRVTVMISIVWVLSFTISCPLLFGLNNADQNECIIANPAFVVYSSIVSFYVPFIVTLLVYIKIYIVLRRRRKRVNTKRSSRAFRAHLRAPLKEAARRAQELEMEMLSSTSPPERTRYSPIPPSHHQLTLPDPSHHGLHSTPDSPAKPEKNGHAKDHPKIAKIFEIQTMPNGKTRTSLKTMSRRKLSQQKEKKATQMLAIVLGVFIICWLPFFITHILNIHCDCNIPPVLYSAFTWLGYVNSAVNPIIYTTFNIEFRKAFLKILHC
Description: as §1
Human recombinant dopamine D2S receptors expressed in CHO cells were used in modified Tris-HCl buffer pH 7.4. A 15 μg aliquot was incubated with 0.16 nM [^3H]Spiperone for 120 minutes at 25° C. Non-specific binding was estimated in the presence of 10 μM haloperidol. Receptors were filtered and washed, the filters were then counted to determine [^3H]Spiperone specifically bound. Test compounds were screened at 10 μM.
as §2, §3

[5] = molecular target: T4, Human recombinant dopamine D3 receptors (Homo sapiens, UniProt P35462); test: D3 receptor radioligand binding inhibition ([3H]Spiperone); conditions: for inhibition at 10 µM: screened at 10 μM, mean of two replicates
T4 construct: expressed in transfected cells; host or cells: CHO
T4 sequence (P35462 whole entry): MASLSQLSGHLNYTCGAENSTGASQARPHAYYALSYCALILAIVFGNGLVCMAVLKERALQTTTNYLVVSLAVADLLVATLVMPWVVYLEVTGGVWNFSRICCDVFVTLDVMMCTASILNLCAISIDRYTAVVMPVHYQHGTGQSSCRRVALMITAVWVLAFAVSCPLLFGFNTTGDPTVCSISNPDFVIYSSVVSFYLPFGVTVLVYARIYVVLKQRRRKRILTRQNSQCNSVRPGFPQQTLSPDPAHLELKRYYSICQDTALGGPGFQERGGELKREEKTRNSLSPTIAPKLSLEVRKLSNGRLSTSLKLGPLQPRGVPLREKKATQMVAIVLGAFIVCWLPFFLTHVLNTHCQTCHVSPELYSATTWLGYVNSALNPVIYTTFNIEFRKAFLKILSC
Description: as §1
Human recombinant dopamine D3 receptors expressed in CHO cells were used in modified Tris-HCl buffer pH 7.4. A 10 μg aliquot was incubated with 0.7 nM [^3H]Spiperone for 120 minutes at 37° C. Non-specific binding was estimated in the presence of 25 μM S(−)-sulpiride. Receptors were filtered and washed, the filters were then counted to determine [^3H]Spiperone specifically bound. Test compounds were screened at 10 μM.
as §2, §3

[6] = molecular target: T5, Human recombinant dopamine D2L receptor (Homo sapiens, UniProt P14416); test: D2L receptor radioligand binding inhibition ([3H]Spiperone); conditions: for inhibition at 10 µM: screened at 10 μM, mean of two replicates
T5 construct: expressed in transfected cells; host or cells: CHO
T5 sequence (P14416 whole entry): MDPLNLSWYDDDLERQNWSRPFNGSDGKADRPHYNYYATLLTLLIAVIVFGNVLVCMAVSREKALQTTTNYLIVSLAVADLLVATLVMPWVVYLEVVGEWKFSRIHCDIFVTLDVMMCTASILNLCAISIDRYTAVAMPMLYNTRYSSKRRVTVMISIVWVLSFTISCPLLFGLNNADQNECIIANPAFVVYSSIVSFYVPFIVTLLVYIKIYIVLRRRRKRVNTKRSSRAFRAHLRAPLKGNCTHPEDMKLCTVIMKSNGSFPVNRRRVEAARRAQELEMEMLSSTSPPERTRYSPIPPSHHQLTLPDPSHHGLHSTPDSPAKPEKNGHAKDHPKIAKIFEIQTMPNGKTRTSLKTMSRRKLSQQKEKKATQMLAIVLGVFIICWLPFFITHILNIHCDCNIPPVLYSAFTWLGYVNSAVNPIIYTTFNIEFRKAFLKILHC
Description: as §1
Human recombinant dopamine D2L receptor expressed in CHO cells were used in modified Tris-HCl buffer pH 7.4. A 20 μg aliquot was incubated with 0.16 nM [^3H]Spiperone for 120 minutes at 25° C. Non-specific binding was estimated in the presence of 10 μM haloperidol. Receptor proteins were filtered and washed, the filters were then counted to determine [^3H]Spiperone specifically bound. Test compounds were screened at 10 μM.
as §2, §3

[7] = molecular target: T6, Human recombinant serotonin 5-HT2B receptor (Homo sapiens, UniProt P41595); test: 5-HT2B receptor radioligand binding inhibition ([3H]LSD); conditions: for inhibition at 10 µM: screened at 10 μM, mean of two replicates
T6 construct: expressed in transfected cells; host or cells: CHO-K1
T6 sequence (P41595 whole entry): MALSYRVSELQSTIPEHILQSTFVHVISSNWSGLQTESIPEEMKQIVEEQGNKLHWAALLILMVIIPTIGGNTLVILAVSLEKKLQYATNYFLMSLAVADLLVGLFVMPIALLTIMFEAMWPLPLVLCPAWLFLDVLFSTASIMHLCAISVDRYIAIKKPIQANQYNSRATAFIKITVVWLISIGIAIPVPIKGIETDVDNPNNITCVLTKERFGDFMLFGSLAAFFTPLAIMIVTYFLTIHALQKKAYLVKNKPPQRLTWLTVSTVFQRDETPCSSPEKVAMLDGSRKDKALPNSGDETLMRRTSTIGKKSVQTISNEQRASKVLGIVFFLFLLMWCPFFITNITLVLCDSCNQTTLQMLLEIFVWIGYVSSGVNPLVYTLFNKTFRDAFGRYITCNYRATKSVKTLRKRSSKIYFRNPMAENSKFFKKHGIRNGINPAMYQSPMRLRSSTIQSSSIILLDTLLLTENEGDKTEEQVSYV
Description: as §1
Human recombinant serotonin 5-HT2B receptor expressed in CHO-K1 cells were used to prepare membranes in modified Tris-HCl buffer pH 7.4. A 30 μg aliquot of membrane protein was incubated with 1.2 nM [^3H]LSD for 60 minutes at 37° C. Non-specific binding was estimated in the presence of 10 μM serotonin. Membranes were filtered and washed, the filters were then counted to determine [^3H]LSD specifically bound. Test compounds were screened at 10 μM.
as §2, §3

[8] = molecular target: T7, human recombinant serotonin 5-HT2c receptors (Homo sapiens, UniProt P28335); test: 5-HT2C receptor radioligand binding inhibition ([3H]Mesulergine); conditions: for inhibition at 10 µM: screened at 10 μM, mean of two replicates; for interaction at 5-HT2C receptor, in words: 10 μM, % inhibition greater than 50% interpreted as potentially significant interaction
T7 construct: expressed in transfected cells; host or cells: CHO-K1 (stably transfected)
T7 sequence (P28335 33-458): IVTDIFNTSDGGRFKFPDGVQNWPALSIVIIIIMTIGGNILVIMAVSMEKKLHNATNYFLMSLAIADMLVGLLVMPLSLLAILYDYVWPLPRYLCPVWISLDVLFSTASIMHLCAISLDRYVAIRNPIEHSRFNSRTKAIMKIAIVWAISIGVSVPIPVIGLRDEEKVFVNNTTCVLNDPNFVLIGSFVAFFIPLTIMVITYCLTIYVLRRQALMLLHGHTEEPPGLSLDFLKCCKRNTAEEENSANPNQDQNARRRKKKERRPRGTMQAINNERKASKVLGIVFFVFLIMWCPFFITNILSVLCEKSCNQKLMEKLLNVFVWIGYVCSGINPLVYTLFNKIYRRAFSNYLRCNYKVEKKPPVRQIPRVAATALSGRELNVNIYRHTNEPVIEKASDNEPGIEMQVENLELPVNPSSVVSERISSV
Description: as §1
CHO-K1 cells stably transfected with a plasmid encoding the human recombinant serotonin 5-HT2c receptors were used to prepare membranes in modified Tris-HCl buffer pH 7.4. A 3.2 μg aliquot of membrane protein was incubated with 1.0 nM [^3H]Mesulergine for 60 minutes at 25° C. Non-specific binding was estimated in the presence of 1 μM Mianserin. Membranes were filtered and washed, the filters were then counted to determine [^3H]Mesulergine specifically bound. Test compounds were screened at 10 μM.
as §2, §3

[9] = molecular target: T8, Human recombinant adenosine A2A receptors (Homo sapiens, UniProt P29274); test: A2A receptor radioligand binding inhibition ([3H]CGS-21680); conditions: for interaction at A2A receptor, in words: 10 μM, % inhibition greater than 50% interpreted as potentially significant interaction; for inhibition at 10 µM: screened at 10 μM, mean of two replicates
T8 construct: expressed in transfected cells; host or cells: HEK-293
T8 sequence (P29274 whole entry): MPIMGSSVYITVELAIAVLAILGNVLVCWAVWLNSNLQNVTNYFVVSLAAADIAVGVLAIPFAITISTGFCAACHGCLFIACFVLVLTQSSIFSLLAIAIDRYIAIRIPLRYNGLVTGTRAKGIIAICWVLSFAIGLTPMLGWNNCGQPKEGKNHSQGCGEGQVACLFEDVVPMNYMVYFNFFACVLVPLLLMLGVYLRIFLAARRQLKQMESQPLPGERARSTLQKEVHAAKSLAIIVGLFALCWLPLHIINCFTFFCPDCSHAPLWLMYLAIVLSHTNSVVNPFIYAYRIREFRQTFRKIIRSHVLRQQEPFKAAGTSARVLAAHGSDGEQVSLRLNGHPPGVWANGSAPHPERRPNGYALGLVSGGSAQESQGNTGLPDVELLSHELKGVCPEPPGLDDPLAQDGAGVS
Description: as §1
Human recombinant adenosine A2A receptors expressed in human HEK-293 cells were used in modified Tris-HCl buffer pH 7.4. A 15 μg aliquot was incubated with 50 nM [^3H]CGS-21680 for 90 minutes at 25° C. Non-specific binding was estimated in the presence of 50 μM NECA. Receptor were filtered and washed, the filters were then counted to determine [^3H]CGS-21680 specifically bound. Test compounds were screened at 10 μM.
as §2, §3

[10] = molecular target: T9, Human recombinant serotonin 5-HT1A receptors (Homo sapiens, UniProt P08908); test: 5-HT1A receptor radioligand binding inhibition ([3H]8-OH-DPAT); conditions: for inhibition at 10 µM: screened at 10 μM, mean of two replicates; for interaction at 5-HT1A receptor, in words: 10 μM, % inhibition greater than 50% interpreted as potentially significant interaction
T9 construct: expressed in transfected cells; host or cells: CHO-K1
T9 sequence (P08908 1-422): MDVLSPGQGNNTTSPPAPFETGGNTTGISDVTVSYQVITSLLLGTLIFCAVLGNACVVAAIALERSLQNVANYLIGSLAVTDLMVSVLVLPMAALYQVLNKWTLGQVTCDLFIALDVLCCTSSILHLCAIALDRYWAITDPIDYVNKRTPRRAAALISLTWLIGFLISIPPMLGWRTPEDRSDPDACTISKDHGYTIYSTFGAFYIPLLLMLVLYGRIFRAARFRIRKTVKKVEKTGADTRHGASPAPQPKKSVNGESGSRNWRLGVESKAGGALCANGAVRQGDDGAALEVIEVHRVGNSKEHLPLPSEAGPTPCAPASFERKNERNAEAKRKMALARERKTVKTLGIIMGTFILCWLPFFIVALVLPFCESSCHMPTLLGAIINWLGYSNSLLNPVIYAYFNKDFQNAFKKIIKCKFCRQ
Description: as §1
Human recombinant serotonin 5-HT1A receptors expressed in CHO-K1 cells were used in modified Tris-HCl buffer pH 7.4. An 8 μg aliquot of membrane protein was incubated with 1.5 nM [^3H]8-OH-DPAT for 60 minutes at 25° C. Non-specific binding was estimated in the presence of 10 μM metergoline. Receptors were filtered and washed, the filters were then counted to determine [^3H]8-OH-DPAT specifically bound. Test compounds were screened at 10 μM.
as §2, §3

[11] = 10 μM, % inhibition greater than 50% interpreted as potentially significant interaction

Row | SMILES | % inhibition, D4.7 [1] [%] | selectivity as ligand of the 5-HT2A receptor, in words [2] | inhibition at 10 µM [2] [%] | inhibition at 10 µM [3] [%] | inhibition at 10 µM [4] [%] | inhibition at 10 µM [5] [%] | inhibition at 10 µM [6] [%] | inhibition at 10 µM [7] [%] | inhibition at 10 µM [8] [%] | interaction at A2A receptor, in words [9] | inhibition at 10 µM [9] [%] | inhibition at 10 µM [10] [%] | interaction at D4.7 receptor, in words [1] | interaction at 5-HT2A receptor, in words [2] | interaction at 5-HT2C receptor, in words [8] | interaction at 5-HT1A receptor, in words [10] | other results
1 | CCN(CCF)C(=O)C1C=C2c3cccc4[nH]cc(c34)CC2N(C)C1 (centres unmarked) [Compound 4, lysergic acid monofluoro diethylamide] | 71.6 | advantageously selective ligands of the 5-HT2A receptor | 97.1 | 97.1 | 92.1 | 97.7 | 92.7 | 97.9 | 100 | no significant interaction | 12.3 | 100 |  |  |  |  | 
2 | CN1CC(C(=O)N2CC3(COC3)C2)C=C2c3cccc4[nH]cc(c34)CC21 (centres unmarked) [Compound 1, 2-oxa-6-azaspiro[3.3]heptyl-lysergic acid amide] |  |  | 95.3 | 85.6 | 83.1 | 94.5 | 78.8 | 96.8 | 85.8 |  | -12.3 | 96.3 |  |  |  |  | 
3 | CCN(CC)C(=O)C1C=C2c3cccc4[nH]cc(c34)CC2N(CCF)C1 (centres unmarked) [Compound 2, 6-(2-mono-fluoro-ethyl)-6-nor-lysergic acid diethylamide] | 2.8 | advantageously selective ligands of the 5-HT2A receptor | 95.7 | 4.3 | 0.6 | 14.2 | 7.9 | 90.5 | 4.8 | no significant interaction | -2.5 | 100 | no significant interaction | very high % inhibition | no significant interaction | very high % inhibition | interaction at D1 receptor, in words [3, 11]: no significant interaction; interaction at D2S receptor, in words [4, 11]: no significant interaction; interaction at D3 receptor, in words [5, 11]: no significant interaction; interaction at D2L receptor, in words [6, 11]: no significant interaction
4 | CN1CC(C(=O)NCC(F)(F)F)C=C2c3cccc4[nH]cc(c34)CC21 (centres unmarked) [Compound 3, lysergic acid mono-(trifluoroethyl)amide] | 20.1 | advantageously selective ligands of the 5-HT2A receptor | 93.1 | 53.8 | 64.2 | 94.7 | 63.1 | 94.9 | 89.4 | no significant interaction | -2 | 101 | no significant interaction | significant interaction | significant interaction | significant interaction | D3 % inhibition compared with other dopamine receptors, in words ([5]; 10 μM, may indicate greater selectivity for D3): higher % inhibition than at other dopamine receptors; interaction at 5-HT2B receptor, in words [7, 11]: significant interaction
